In one data set the test system is SREBP pathway. Briefly: SREBP luciferase reporter gene system (SRE-luciferase assay). It counts as cell-based, human. To be noted: Huh-7/SRE-luc cells, sterol-deficient medium, 0.01-10 µM. Put shortly: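 Huh-7 cells stably carrying LDLR promoter-luciferase plus GFP were treated 16 h in sterol-deficient medium (5% lipoprotein-deficient serum, 2 µM lovastatin, 10 µM mevalonic acid) at 0.01–10 µM. Luciferase/GFP ratio measured as pathway activity; inhibition versus DMSO fitted to a four-parameter model for IC50.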

Data set [1] can be described thus: Solubility in fasted-state simulated intestinal fluid (FaSSIF). It counts as physicochemical. To be noted: FaSSIF, pH 6.5, fassif, kinetic from dmso stock, FaSSIF pH 6.5, 300 µM sample solution, room temperature. How it is done: Compound powder was dissolved in DMSO to prepare a 10.0 mM stock solution for later use. 0.021 g NaOH, 0.198 g NaH2PO4, and 0.309 g NaCl were weighed and added to 50.0 mL of ultrapure water. After thorough mixing, the pH was adjusted to 6.5 using HCl or NaOH. Then, 0.112 g of FaSSIF powder was added. After complete dissolution, the solution was allowed to stand at room temperature for 2 hours for later use. A certain volume of the compound stock solution was added to a certain volume of FaSSIF to prepare a 300 µM sample solution, which was mixed at room temperature under 1000 rpm for 1 hour. After 1 hour, the sample was centrifuged, and a certain volume of supernatant was taken. The termination solution was added to precipitate the sample, which was then thoroughly mixed and centrifuged for 20 minutes. The supernatant was then taken again, diluted with dilution solution, and then analyzed by liquid chromatography-tandem mass spectrometry (LC-MS/MS). The concentration of the test compound in the samples was quantitatively determined using LC-MS/MS. Table 3: FaSSIF solubility results of compounds from some examples

For data set [2], the system named is Fatty Acid Synthase (FASN) gene. Nature of the data set: Inhibition of FASN gene expression (qPCR) in Huh-7 cells. It is filed as cell-based, human. To be noted: read-out: FASN IC50. An outline of the steps:
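Huh-7 cells switched to starvation DMEM (5% LPDS, 2 µM lovastatin, 10 µM mevalonate) and treated 16 h with compound, top 3000 nM, 3-fold dilutions, 5 concentrations. FASN mRNA by RT-qPCR; inhibition relative to DMSO, IC50 from four-parameter fit.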
For orientation: In qPCR the cycle at which signal appears reflects the starting amount.

[3] abbreviates: Homo sapiens, Huh-7, 16 h, Huh-7 cells, starvation medium, 16 hours, qPCR, class symbols.

Converted amounts (≈) assume the structure as drawn. Read-outs that look alike come from different tables or passages of the source.

For 17 compounds, IC50 and solubility results are on record in patent EP4752152A1, “STEROID COMPOUND, AND PREPARATION METHOD THEREFOR AND USE THEREOF” (Cholesgen (Shanghai) Co.Ltd., priority 2023, dated 2025).

As to `C[C@H](CCCC(O)c1ccccc1F)[C@H]1CC[C@H]2[C@H]3[C@H](CC[C@]12C)[C@@]1(C)CC[C@H](O)[C@H](O)[C@@H]1CC3(F)F` (stereo partly drawn) [Compound 3, (1R,3aS,3bS,5aR,6R,7S,9aR,9bS,11aR)-4,4-difluoro-1-[(2R)-6-(2-fluorophenyl)-6-hydroxyhexan-2-yl]-9a,11a-dimethylhexadecahydro-1H-cyclopenta[1,2-a]phenanthrene-6,7-diol], in the data set on SREBP pathway (Homo sapiens, Huh-7, 16 h), the IC50 – broadly, the concentration that inhibits the measured activity by half – turned out to be 0.03 µM. The solubility (commonly the dissolved amount per volume that the medium holds) at 1 h in data set [1] was 247 µM (≈ 129 µg/mL).

With `COc1cc(OC)c([C@@H](O)CCC[C@@H](C)[C@H]2CC[C@H]3[C@H]4[C@H](CC[C@]23C)[C@@]2(C)CC[C@H](O)[C@H](O)[C@@H]2CC4(F)F)c(F)n1` (single isomer, unassigned) [Compound 236], the IC50 with SREBP pathway (Homo sapiens, Huh-7, 16 h) worked out at 0.079 µM. Also, the solubility at 1 h in data set [1] is 305 µM (≈ 178 µg/mL).

As to `COc1cc(F)c([C@H](O)CCC[C@@H](C)[C@H]2CC[C@H]3[C@H]4[C@H](CC[C@]23C)[C@@]2(C)CC[C@H](O)[C@H](O)[C@@H]2CC4(F)F)c(F)n1` (single isomer, unassigned) [Compound 240], the IC50 in the data set with SREBP pathway (Homo sapiens, Huh-7, 16 h) was 0.042 µM. The amount in solution in data set [1] (solubility at 1 h) came to 146 µM (≈ 83.4 µg/mL).

Take `C[C@H](CCCC(O)c1cccc2cn[nH]c12)[C@H]1CC[C@H]2[C@H]3[C@H](CC[C@]12C)[C@@]1(C)CC[C@H](O)[C@H](O)[C@@H]1CC3(F)F` (stereo partly drawn) [Compound 224, (1R,3aS,3bS,5aR,6R,7 S,9aR,9bS,11aR)-4,4-Difluoro-1-[(2R)-6-hydroxy-6-(1H-indazol-7-yl)hexan-2-yl]-9a,11a-dimethylhexadecahydro-1H-cyclopenta[1,2-a]phenanthrene-6,7-diol]: the IC50 in the data set with SREBP pathway (Homo sapiens, Huh-7, 16 h) turned out to be 0.055 µM. Further, the solubility at 1 h in data set [1] was 48 µM (≈ 26.1 µg/mL).

In the case of `C[C@H](CCCC(O)c1nnnn1C)[C@H]1CC[C@H]2[C@H]3[C@H](CC[C@]12C)[C@@]1(C)CC[C@H](O)C[C@@H]1CC3(F)F` (stereo partly drawn) [Compound 373, (1R,3aS,3bR,5aR,7S,9aS,9bS,11aR)-4,4-difluoro-1-[(2R)-6-hydroxy-6-(1-methyl-1,2,3,4-tetrazol-5-yl)hexan-2-yl]-9a,11a-dimethylhexadecahydro-1H-cyclopenta[1,2-a]phenanthren-7-ol], the IC50 in data set [2] (setting [3]) is below 200 nM; in the data set with SREBP pathway (Homo sapiens, Huh-7, 16 h), 0.078 µM.

For the compound `C[C@H](CCCC(O)c1ccc(F)cc1F)[C@H]1CC[C@H]2[C@H]3[C@H](CC[C@]12C)[C@@]1(C)CC[C@H](O)[C@H](O)[C@@H]1CC3(F)F` (stereo partly drawn) [Compound 102, (1R,3aS,3bS,5aR,6R,7S,9aR,9bS,11aR)-1-[(2R)-6-(2,4-difluorophenyl)-6-hydroxyhexan-2-yl]-4,4-difluoro-9a,11a-dimethylhexadecahydro-1H-cyclopenta[1,2-a]phenanthrene-6,7-diol], the IC50 is below 200 nM in data set [2] (setting [3]) and 0.14 µM in the data set with SREBP pathway (Homo sapiens, Huh-7, 16 h).

As for `C[C@H](CCCC(O)c1nc2cccc(Br)c2n1C)[C@H]1CC[C@H]2[C@H]3[C@H](CC[C@]12C)[C@@]1(C)CC[C@H](O)[C@H](O)[C@@H]1CC3(F)F` (stereo partly drawn) [Compound 212, (1R,3aS,3bS,5aR,6R,7 S,9aR,9bS,11aR)-1-[(2R)-6-(7-Bromo-1-methylbenzo[d]imidazol-2-yl)-6-hydroxyhexan-2-yl]-4,4-difluoro-9a,11a-dimethylhexadecahydro-1H-cyclopenta[1,2-a]phenanthrene-6,7-diol], the IC50 is 200 to 500 nM in data set [2] (setting [3]) and 0.08 µM in the data set with SREBP pathway (Homo sapiens, Huh-7, 16 h).

For the compound `C[C@H](CCCC(O)c1nc2cnccc2n1C)[C@H]1CC[C@H]2[C@H]3[C@H](CC[C@]12C)[C@@]1(C)CC[C@H](O)[C@H](O)[C@@H]1CC3(F)F` (stereo partly drawn) [Compound 311, (1R,3aS,3bS,5aR,6R,7 S,9aR,9bS,11aR)-4,4-Difluoro-1-[(2R)-6-hydroxy-6-(1-methylimidazo[5,4-c]pyridin-2-yl)hexan-2-yl]-9a,11a-dimethylhexadecahydro-1H-cyclopenta[1,2-a]phenanthrene-6,7-diol], the IC50 in data set [2] (setting [3]) was below 200 nM; in the data set on SREBP pathway (Homo sapiens, Huh-7, 16 h), 0.072 µM.

For the compound `COc1ccc(C(O)CCC[C@@H](C)[C@H]2CC[C@H]3[C@H]4[C@H](CC[C@]23C)[C@@]2(C)CC[C@H](O)[C@H](O)[C@@H]2CC4(F)F)c(OC)n1` (stereo partly drawn) [Compound 177, (1R,3aS,3bS,5aR,6R,7 S,9aR,9bS,11aR)-1-[(2R)-6-(2,6-Dimethoxypyridin-3-yl)-6-hydroxyhexan-2-yl]-4,4-difluoro-9a,11a-dimethylhexadecahydro-1H-cyclopenta[1,2-a]phenanthrene-6,7-diol], the IC50 in data set [2] (setting [3]) was below 200 nM; in the data set with SREBP pathway (Homo sapiens, Huh-7, 16 h), 0.186 µM.

On to `C[C@H](CCC[C@@H](O)c1ccccn1)[C@H]1CC[C@H]2[C@H]3[C@H](CC[C@]12C)[C@@]1(C)CC[C@H](O)[C@H](O)[C@@H]1CC3(F)F` [Compound 92, (1R,3aS,3bS,5aR,6R,7S,9aR,9bS,11aR)-4,4-difluoro-1-[(2R,6R)-6-hydroxy-6-(pyridin-2-yl)hexan-2-yl]-9a,11a-dimethylhexadecahydro-1H-cyclopenta[1,2-a]phenanthrene-6,7-diol], for which the IC50 in data set [2] (setting [3]) was below 200 nM; in the data set with SREBP pathway (Homo sapiens, Huh-7, 16 h), 0.371 µM.

`COc1ncccc1C(O)CCC[C@@H](C)[C@H]1CC[C@H]2C3=C(F)C[C@H]4[C@@H](O)[C@@H](O)CC[C@]4(C)[C@H]3CC[C@]12C` (stereo partly shown) [Compound 83]: the IC50 is 200 to 500 nM in data set [2] (setting [3]) and 0.092 µM in the data set on SREBP pathway (Homo sapiens, Huh-7, 16 h).

On to `C[C@H](CCCC(O)c1ccc2c(n1)OC(F)(F)O2)[C@H]1CC[C@H]2[C@H]3[C@H](CC[C@]12C)[C@@]1(C)CC[C@H](O)[C@H](O)[C@@H]1CC3(F)F` (single isomer, unassigned) [Compound 266], for which the IC50 is below 200 nM in data set [2] (Huh-7 cells, starvation medium, 16 hours, qPCR, class symbols) and 0.099 µM with SREBP pathway (16 hours).

Take `COc1cc(F)ccc1C(O)CCC[C@@H](C)[C@H]1CC[C@H]2[C@H]3[C@H](CC[C@]12C)[C@@]1(C)CC[C@H](O)C(=O)[C@@H]1CC3(F)F` (stereo partly drawn) [Compound 184, (1R,3aS,3bS,5aR,7S,9aR,9bS,11aR)-4,4-difluoro-1-[(2R)-6-(4-fluoro-2-methoxyphenyl)-6-hydroxyhexan-2-yl]-7-hydroxy-9a,11a-dimethylhexadecahydro-1H-cyclopenta[1,2-a]phenanthren-6-one]: the IC50 is below 200 nM in data set [2] (setting [3]) and 0.031 µM in the data set with SREBP pathway (Homo sapiens, Huh-7, 16 h).

In the case of `COc1nc(F)cc(F)c1[C@@H](O)CCC[C@@H](C)[C@H]1CC[C@H]2[C@H]3[C@H](CC[C@]12C)[C@@]1(C)CC[C@H](O)[C@H](O)[C@@H]1CC3(F)F` (single isomer, unassigned) [Compound 255], the IC50 was 200 to 500 nM in data set [2] (setting [3]) and 0.107 µM with SREBP pathway (Homo sapiens, Huh-7, 16 h).

As for `COc1cc(Cl)ccc1[C@H](O)CCC[C@@H](C)[C@H]1CC[C@H]2[C@H]3[C@H](CC[C@]12C)[C@@]1(C)CC[C@H](O)[C@H](O)[C@@H]1CC3(F)F` [Compound 113, (1R,3aS,3bS,5aR,6R,7S,9aR,9bS,11aR)-1-[(2R,6R)-6-(4-chloro-2-methoxyphenyl)-6-hydroxyhexan-2-yl]-4,4-difluoro-9a,11a-dimethylhexadecahydro-1H-cyclopenta[1,2-a]phenanthrene-6,7-diol], the IC50 in data set [2] (setting [3]) is 200 to 500 nM; with SREBP pathway (Homo sapiens, Huh-7, 16 h), 0.228 µM.

With `C[C@H](CCC[C@@H](O)c1nc2cnccc2n1C)[C@H]1CC[C@H]2[C@H]3[C@H](CC[C@]12C)[C@@]1(C)CC[C@H](O)[C@H](O)[C@@H]1CC3(F)F` (stereo in doubt) [Compound 326, (1R,3aS,3bS,5aR,6R,7S,9aR,9bS,11aR)-4,4-difluoro-1-[(2R,6R)-6-hydroxy-6-(1-methylimidazo[5,4-c]pyridin-2-yl)hexan-2-yl]-9a,11a-dimethylhexadecahydro-1H-cyclopenta[1,2-a]phenanthrene-6,7-diol], the IC50 in data set [2] (setting [3]) is below 200 nM; with SREBP pathway (Homo sapiens, Huh-7, 16 h) it was 0.011 µM.

With `COc1cccc(F)c1C(CCC[C@@H](C)[C@H]1CC[C@H]2[C@H]3[C@H](CC[C@]12C)[C@@]1(C)CC[C@H](O)[C@H](O)[C@@H]1CC3(F)F)=NO` (single isomer, unassigned) [Compound 210, [(1E,5R)-5-[(1R,3aS,3bS,5aR,6R,7S,9aR,9bS,11aR)-4,4-difluoro-6,7-dihydroxy-9a,11a-dimethylhexadecahydro-1H-cyclopenta[1,2-a]phenanthren-1-yl]-1-(2-fluoro-6-methoxyphenyl)hexylidene]hydroxylamine or [(1Z,5R)-5-[(1R,3aS,3bS,5aR,6R,7S,9aS,9bS,11aR)-4,4-difluoro-6,7-dihydroxy-9a,9b,11a-trimethylhexadecahydro-1H-cyclopenta[1,2-a]phenanthren-1-yl]-1-(2-fluoro-6-methoxyphenyl)hexylidene]hydroxylamine], the IC50 is below 200 nM in data set [2] (Homo sapiens, Huh-7, 16 h) and 0.017 µM in the data set on SREBP pathway (16 hours).
